Experimental data published in publication PMC6131539, “Behavioral Effects of a Potential Novel TAAR1 Antagonist” (Frontiers in Pharmacology, 2018).

Columns and labels:
[1] = test system: WT littermates (C57BL/6J x 129S2/Sv); test: Stereotypic counts, co-injection with cocaine, WT littermates; assay type: in vivo, mice; details: 15 and 25 mg/kg co-injected with cocaine 10 mg/kg
Method: (§1) Experimentally naïve mice, of at least 12 weeks of age, were used for all behavioral experiments. The mice were randomly assigned to treatment or control groups, balanced by sex and weight. Locomotor activity was assessed using the automated locomotor analysis monitors (Omnitech Electronics, Columbus, OH, United States). The apparatus included four open field monitors. Each Open Field monitor consisted of sets of 16 light beams arrayed in the horizontal X and Y axes. The hardware detected beams broken by the animal, which allowed the software to determine the location of the mouse in the cage. Total distance covered by mice was used to characterize locomotor activity of the animals. The monitors were divided into four compartments (20 cm × 20 cm). Animals were tested individually for defined periods with 5-min intervals. The mice were first weighed and then placed into the apparatus, allowing for 30 min habituation. […] The locomotor activity was then measured for additional 1 h. […]
Supplementary file Image_2.TIF: FIGURE S2 In vivo studies with TAAR1-KO mice and compound 22 on stereotypic counts activity. […] The sum of stereotypic counts was assessed over 60 min after the injection of amphetamine and compound 22 in WT (solid bars) or TAAR1-KO mice (spotted bars). […] The sum of stereotypic counts was assessed over 60 min following the injection in WT (solid bars) or TAAR1-KO mice (dotted bars). […]

[2] = test system: WT littermates (C57BL/6J × 129S2/Sv); test: Cocaine-induced locomotor activity, co-injection, WT littermates; assay type: in vivo, mice; details: 5, 15 and 25 mg/kg co-injected with cocaine 10 mg/kg
Method: The Taarl^-/- (TAAR1-KO) mice were obtained from Lundbeck ([Wolinsky et al., 2007]). All wild type (WT) and TAAR1-KO mice used for experiments were generated from TAAR1-KO heterozygous mice in a C57BL/6J x 129S1/Sv mixed background.
as §1
The locomotor activity was assessed for 60 min following the injection. […]

[3] = test system: TAAR1-KO mice; test: Basal locomotor activity in TAAR1-KO mice; assay type: in vivo; details: 5 and 25 mg/kg alone, 60 min
Method: The Taarl^-/- (TAAR1-KO) mice were obtained from Lundbeck ([Wolinsky et al., 2007]). All wild type (WT) and TAAR1-KO mice used for experiments were generated from TAAR1-KO heterozygous mice in a C57BL/6J x 129S1/Sv mixed background. Experimentally naïve mice, of at least 12 weeks of age, were used for all behavioral experiments. The mice were randomly assigned to treatment or control groups, balanced by sex and weight. Locomotor activity was assessed using the automated locomotor analysis monitors (Omnitech Electronics, Columbus, OH, United States). The apparatus included four open field monitors. Each Open Field monitor consisted of sets of 16 light beams arrayed in the horizontal X and Y axes. The hardware detected beams broken by the animal, which allowed the software to determine the location of the mouse in the cage. Total distance covered by mice was used to characterize locomotor activity of the animals. The monitors were divided into four compartments (20 cm × 20 cm). Animals were tested individually for defined periods with 5-min intervals. The mice were first weighed and then placed into the apparatus, allowing for 30 min habituation. […] The locomotor activity was then measured for additional 1 h. […] The locomotor activity was assessed for 60 min following the injection. […]

Clc1ccc(CNCc2ccc(Cn3cncn3)cc2)c(Cl)c1 [compound 22]
stereotypic counts [1]: enhanced stereotypic counts
effect on locomotor stimulating effects of cocaine [2]: significantly potentiate
effect on basal locomotor activity [3]: did not significantly alter
